Data on three molecules can be found in patent US12060576B2, “Compositions and methods for producing megakaryocytes” (Stellular Bio, Inc., priority 2018, dated 2024).

Experiment [1] concerns PBG1 iPSCs. The experiment can be described thus: Phase I directed differentiation of PBG1 iPSCs to hemogenic endothelium, immunofluorescence staining of CD31 and CD34. In kind it is cell-based, human. The conditions noted are these: Laminin 521 matrix, versus control without WNT agonist.
Text: FIG. 26A, FIG. 26B, and FIG. 26C depict immunofluorescence microscopy images of Day 6 Phase I cultures on Laminin 521. FIG. 26A depicts a control culture without WNT agonist.
For experiment [2], the system named is PBG1 iPSCs. The note with it: 0.6 uM in the first 48 hours of Phase I; Day 6+4; Laminin 521 matrix; versus control.
Experiment [3] concerns PBG-1 iPSCs. In words: Directed differentiation of PBG-1 to preMKs and MKs on a recombinant Laminin-521 matrix compared with Collagen IV, flow cytometry. In kind it is cell-based, human. The conditions noted are these: 3 days of Phase III (Day 6+6+3); preMKs from Laminin-521 or Collagen IV cultures. The protocol: FIG. 23A, FIG. 23B, and FIG. 23C depict use of recombinant Laminin 521 to support production and release of megakaryocytic progenitors in Phase II of directed differentiation of PBG1 cells. FIG. 23A depicts representative flow cytometric data from Phase II of PBG1 differentiation cultures utilizing a supportive matrix of 4.2 ug/cm^2 human Collagen IV. FIG. 23B depicts representative flow cytometric data from Phase II of PBG1 differentiation cultures utilizing a supportive matrix of 0.13 ug/cm^2 recombinant human Laminin 521. FIG. 23C depicts the cumulative yields of released preMKs (i.e. viable CD41+CD43+CD14−) per 6-well equivalent (i.e. 2 ml of media, 9.5 cm^2 surface area) between day 6+4 and 6+8 of Phase II directed differentiation cultures initiated with PBG1 iPSCs, utilizing a supportive matrix of 4.2 ug/cm^2 human Collagen IV or 0.13 ug/cm^2 recombinant human Laminin 521.
FIG. 25A and FIG. 25B show flow cytometric subset breakdowns of Phase III (Day 6+6+3) cultures. […] Non-MKs are CD61−, Immature MKs are CD61+CD42a−CD42b−, Apoptotic MKs are CD61+CD42a+CD42b−, and Mature MKs are CD61+CD42a+CD42b+.
Collagen IV is purified from human placental material and is only available as a Research Use Only reagent. […]
A general note: A flow cytometer gives signals particle by particle.

Take `Cc1c[nH]c(-c2cnc(NCCNc3ccc(C#N)cn3)nc2-c2ccc(Cl)cc2Cl)n1` [CHIR99021]: the “Phase I differentiation efficiency at day 6 (CD31 and CD34 staining)” value in experiment [1] (6 uM for the first 48 hours of differentiation only) is listed as “dramatic increase”. Regarding CHIR98014, the “Phase I differentiation efficiency at day 6 (CD31 and CD34 staining)” value in experiment [1] (0.6 uM for the first 48 hours of differentiation only) was “dramatic increase”. Besides, the “Phase II output of preMKs (visual estimation of the number of CD41+ cells)” value in experiment [2] is listed as “higher output during Phase II”. As for “Laminin-521: recombinant human laminin 521, supportive matrix replacing Collagen IV for directed differentiation”, in experiment [3], the “Proportion of CD61+ cells co-expressing CD42a and CD42b in Phase III versus Collagen IV” value is “found to be similar”.
